# Laboratory results taken from patent publication US20130116263A1, “PAK INHIBITORS FOR THE TREATMENT OF CELL PROLIFERATIVE DISORDERS” (AFRAXIS, INC., priority 2011, published 2013).
# pIC50: −log10 of the molar value.
# Molecular target: PAK4 (Homo sapiens, UniProt O96013)
# Test: Additional in vitro PAK-4 inhibition assay at ATP 10 uM and 1 mM
# Format: biochemical
# Settings: 10 μM ATP; read-out: PAK4 IC50 (10 μM ATP)
# Procedure: (§1) Similar in vitro PAK1 and PAK-4 inhibition assays are conducted in compounds for the treatment of cancer, but under ATP concentrations of 10 uM and 1 mM.
# Sequence of PAK4 (O96013 whole entry): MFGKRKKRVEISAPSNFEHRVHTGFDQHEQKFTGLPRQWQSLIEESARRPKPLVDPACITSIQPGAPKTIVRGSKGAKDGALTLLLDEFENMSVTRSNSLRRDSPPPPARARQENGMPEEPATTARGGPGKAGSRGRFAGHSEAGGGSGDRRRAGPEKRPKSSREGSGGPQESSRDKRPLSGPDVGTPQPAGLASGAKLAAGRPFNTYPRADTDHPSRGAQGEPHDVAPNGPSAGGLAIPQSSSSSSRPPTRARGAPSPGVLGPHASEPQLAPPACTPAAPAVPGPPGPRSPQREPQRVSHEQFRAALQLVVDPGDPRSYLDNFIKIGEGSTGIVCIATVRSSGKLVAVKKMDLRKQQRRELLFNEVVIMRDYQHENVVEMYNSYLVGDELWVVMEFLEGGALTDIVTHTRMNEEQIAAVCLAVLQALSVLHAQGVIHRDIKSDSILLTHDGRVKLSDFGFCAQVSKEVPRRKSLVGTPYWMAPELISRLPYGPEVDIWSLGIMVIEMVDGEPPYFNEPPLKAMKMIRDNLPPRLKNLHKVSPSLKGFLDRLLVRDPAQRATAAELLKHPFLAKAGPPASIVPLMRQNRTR
row,Structure (SMILES),pIC50
1,CCn1c(=O)c(-c2ccc(-c3noc(C)n3)cc2Cl)cc2cnc(N[C@H]3COC[C@H]3O)nc21,≤ 5.30
2,Cc1nc(-c2ccc(-c3cc4cnc(NC5CC5)nc4n(Cc4cccc(CN)c4)c3=O)c(Cl)c2)no1,≤ 5.30
3,Cc1nc(-c2ccc(-c3cc4cnc(NC5CCOCC5)nc4n(Cc4cccc(CCN)c4)c3=O)c(Cl)c2)no1 [drawing 339],≤ 5.30
4,Cc1nc(-c2ccc(-c3cc4cnc(NC5CC5)nc4n(Cc4cccc(CN(C)C)c4)c3=O)c(Cl)c2)no1,≤ 5.30
5,CCn1c(=O)c(-c2ccc(-c3noc(C)n3)cc2Cl)cc2cnc(NC3CC3c3ccccc3)nc21 (stereo not drawn),5.30 to 6.30
6,CCN1CCC(CCNc2ncc3cc(-c4ccc(-c5noc(C)n5)cc4Cl)c(=O)n(CC)c3n2)CC1,≤ 5.30
7,CCn1c(=O)c(-c2ccc(-c3noc(C)n3)cc2Cl)cc2cnc(NCCC3CCN(C)CC3)nc21 [drawing 361],≤ 5.30
8,CCn1c(=O)c(-c2ccc(-c3noc(C)n3)cc2Cl)cc2cnc(NCC3CCCO3)nc21 (stereo not drawn),≤ 5.30
9,Cc1nc(-c2ccc(-c3cc4cnc(NC5CCOCC5)nc4n(C4CCN(C5CCNCC5)C4)c3=O)c(Cl)c2)no1 (stereo not drawn),≤ 5.30
10,CCn1c(=O)c(-c2ccc(-c3noc(C)n3)cc2Cl)cc2cnc(NCc3ccccn3)nc21,≤ 5.30
11,Cc1nc(-c2ccc(-c3cc4cnc(NC5CCOCC5)nc4n(CC(=O)NCCCN)c3=O)c(Cl)c2)no1,≤ 5.30
12,CCn1c(=O)c(-c2ccc(-c3noc(C)n3)cc2Cl)cc2cnc(NC3COC4(CCCC4)C3)nc21 (stereo not drawn),5.30 to 6.30
13,CCn1c(=O)c(-c2ccc(-c3noc(C)n3)cc2Cl)cc2cnc(NC3CCOC(C)(C)C3)nc21 (stereo not drawn),≤ 5.30
14,CCn1c(=O)c(-c2ccc(-c3noc(C)n3)cc2Cl)cc2cnc(NCCCN(C)C)nc21,≤ 5.30
15,CCCCNc1ncc2cc(-c3ccc(-c4noc(C)n4)cc3Cl)c(=O)n(CC)c2n1,≤ 5.30
16,Cc1nc(-c2ccc(-c3cc4cnc(NC5CCOCC5)nc4n(C4CCN(CCN)C4)c3=O)c(Cl)c2)no1 (stereo not drawn),≤ 5.30
17,CCn1c(=O)c(-c2ccc(-c3noc(C)n3)cc2Cl)cc2cnc(NCCCNC(C)=O)nc21,≤ 5.30
18,CCn1c(=O)c(-c2ccc(-c3noc(C)n3)cc2Cl)cc2cnc(N[C@@H]3C[C@H]3C)nc21,> 7.30
19,Cc1nc(-c2ccc(-c3cc4cnc(NC5CCOCC5)nc4n(CC(=O)NC4CCNC4)c3=O)c(Cl)c2)no1 (stereo not drawn) [drawing 346],≤ 5.30
20,CCn1c(=O)c(-c2ccc(-c3noc(C)n3)cc2Cl)cc2cnc(NCC3CCOC3)nc21 (stereo not drawn),≤ 5.30
21,Cc1nc(-c2ccc(-c3cc4cnc(NC5CCOCC5)nc4n(CC(=O)N4CCCC(CN)C4)c3=O)c(Cl)c2)no1 (stereo not drawn),≤ 5.30
22,CCn1c(=O)c(-c2ccc(-c3noc(C)n3)cc2Cl)cc2cnc(NC(C)C)nc21,≤ 5.30
23,Cc1nc(-c2ccc(-c3cc4cnc(NC5CCOCC5)nc4n(C4CCNC4)c3=O)c(Cl)c2)no1 (stereo not drawn),≤ 5.30
24,CCn1c(=O)c(-c2ccc(-c3noc(C)n3)cc2Cl)cc2cnc(NCCCOC)nc21,≤ 5.30
25,CCn1c(=O)c(-c2ccc(-c3noc(C)n3)cc2Cl)cc2cnc(NN3CCOCC3)nc21,≤ 5.30
26,CCn1c(=O)c(-c2ccc(-c3noc(C)n3)cc2Cl)cc2cnc(NCc3ccncc3)nc21,≤ 5.30
27,Cc1nc(-c2ccc(-c3cc4cnc(NC5CCOCC5)nc4n(C4CCOCC4)c3=O)c(Cl)c2)no1,≤ 5.30
28,Cc1nc(-c2ccc(-c3cc4cnc(NC5CCOCC5)nc4n(Cc4cccc(OCCN)c4)c3=O)c(Cl)c2)no1 [drawing 344],≤ 5.30

# Molecular target: PAK1 (Homo sapiens, UniProt Q13153)
# Test: Additional in vitro PAK1 inhibition assay at ATP 10 uM and 1 mM
# Format: biochemical
# Settings: 10 μM ATP; read-out: PAK1 IC50 (10 μM ATP)
# Procedure: as §1
# Sequence of PAK1 (Q13153 whole entry): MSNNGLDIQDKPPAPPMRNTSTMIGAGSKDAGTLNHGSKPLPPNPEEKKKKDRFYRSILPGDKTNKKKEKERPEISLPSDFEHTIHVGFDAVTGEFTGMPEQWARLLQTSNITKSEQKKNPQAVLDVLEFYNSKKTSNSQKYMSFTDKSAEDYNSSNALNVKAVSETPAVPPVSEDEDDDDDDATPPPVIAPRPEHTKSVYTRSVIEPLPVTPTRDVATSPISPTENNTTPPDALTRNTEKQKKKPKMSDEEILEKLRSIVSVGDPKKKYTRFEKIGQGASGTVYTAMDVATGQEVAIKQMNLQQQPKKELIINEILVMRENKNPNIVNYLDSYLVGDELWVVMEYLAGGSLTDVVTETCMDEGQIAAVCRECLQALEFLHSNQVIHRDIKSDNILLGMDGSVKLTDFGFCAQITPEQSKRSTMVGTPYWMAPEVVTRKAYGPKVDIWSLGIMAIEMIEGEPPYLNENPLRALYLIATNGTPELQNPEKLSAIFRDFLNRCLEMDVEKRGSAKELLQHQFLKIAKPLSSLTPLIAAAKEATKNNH
row,Structure (SMILES),pIC50
1,CCn1c(=O)c(-c2ccc(-c3noc(C)n3)cc2Cl)cc2cnc(N[C@H]3COC[C@H]3O)nc21,5.30 to 6.30
2,Cc1nc(-c2ccc(-c3cc4cnc(NC5CC5)nc4n(Cc4cccc(CN)c4)c3=O)c(Cl)c2)no1,> 7.30
3,Cc1nc(-c2ccc(-c3cc4cnc(NC5CCOCC5)nc4n(Cc4cccc(CCN)c4)c3=O)c(Cl)c2)no1 [drawing 339],> 7.30
4,Cc1nc(-c2ccc(-c3cc4cnc(NC5CC5)nc4n(Cc4cccc(CN(C)C)c4)c3=O)c(Cl)c2)no1,6.30 to 7.30
5,CCn1c(=O)c(-c2ccc(-c3noc(C)n3)cc2Cl)cc2cnc(NC3CC3c3ccccc3)nc21 (stereo not drawn),5.30 to 6.30
6,CCN1CCC(CCNc2ncc3cc(-c4ccc(-c5noc(C)n5)cc4Cl)c(=O)n(CC)c3n2)CC1,6.30 to 7.30
7,CCn1c(=O)c(-c2ccc(-c3noc(C)n3)cc2Cl)cc2cnc(NCCC3CCN(C)CC3)nc21 [drawing 361],6.30 to 7.30
8,CCn1c(=O)c(-c2ccc(-c3noc(C)n3)cc2Cl)cc2cnc(NCC3CCCO3)nc21 (stereo not drawn),5.30 to 6.30
9,Cc1nc(-c2ccc(-c3cc4cnc(NC5CCOCC5)nc4n(C4CCN(C5CCNCC5)C4)c3=O)c(Cl)c2)no1 (stereo not drawn),6.30 to 7.30
10,CCn1c(=O)c(-c2ccc(-c3noc(C)n3)cc2Cl)cc2cnc(NCc3ccccn3)nc21,5.30 to 6.30
11,Cc1nc(-c2ccc(-c3cc4cnc(NC5CCOCC5)nc4n(CC(=O)NCCCN)c3=O)c(Cl)c2)no1,> 7.30
12,CCn1c(=O)c(-c2ccc(-c3noc(C)n3)cc2Cl)cc2cnc(NC3COC4(CCCC4)C3)nc21 (stereo not drawn),5.30 to 6.30
13,CCn1c(=O)c(-c2ccc(-c3noc(C)n3)cc2Cl)cc2cnc(NC3CCOC(C)(C)C3)nc21 (stereo not drawn),6.30 to 7.30
14,CCn1c(=O)c(-c2ccc(-c3noc(C)n3)cc2Cl)cc2cnc(NCCCN(C)C)nc21,5.30 to 6.30
15,CCCCNc1ncc2cc(-c3ccc(-c4noc(C)n4)cc3Cl)c(=O)n(CC)c2n1,5.30 to 6.30
16,Cc1nc(-c2ccc(-c3cc4cnc(NC5CCOCC5)nc4n(C4CCN(CCN)C4)c3=O)c(Cl)c2)no1 (stereo not drawn),6.30 to 7.30
17,CCn1c(=O)c(-c2ccc(-c3noc(C)n3)cc2Cl)cc2cnc(NCCCNC(C)=O)nc21,5.30 to 6.30
18,CCn1c(=O)c(-c2ccc(-c3noc(C)n3)cc2Cl)cc2cnc(N[C@@H]3C[C@H]3C)nc21,6.30 to 7.30
19,Cc1nc(-c2ccc(-c3cc4cnc(NC5CCOCC5)nc4n(CC(=O)NC4CCNC4)c3=O)c(Cl)c2)no1 (stereo not drawn) [drawing 346],6.30 to 7.30
20,CCn1c(=O)c(-c2ccc(-c3noc(C)n3)cc2Cl)cc2cnc(NCC3CCOC3)nc21 (stereo not drawn),5.30 to 6.30
21,Cc1nc(-c2ccc(-c3cc4cnc(NC5CCOCC5)nc4n(CC(=O)N4CCCC(CN)C4)c3=O)c(Cl)c2)no1 (stereo not drawn),6.30 to 7.30
22,CCn1c(=O)c(-c2ccc(-c3noc(C)n3)cc2Cl)cc2cnc(NC(C)C)nc21,5.30 to 6.30
23,Cc1nc(-c2ccc(-c3cc4cnc(NC5CCOCC5)nc4n(C4CCNC4)c3=O)c(Cl)c2)no1 (stereo not drawn),5.30 to 6.30
24,CCn1c(=O)c(-c2ccc(-c3noc(C)n3)cc2Cl)cc2cnc(NCCCOC)nc21,5.30 to 6.30
25,CCn1c(=O)c(-c2ccc(-c3noc(C)n3)cc2Cl)cc2cnc(NN3CCOCC3)nc21,5.30 to 6.30
26,CCn1c(=O)c(-c2ccc(-c3noc(C)n3)cc2Cl)cc2cnc(NCc3ccncc3)nc21,6.30 to 7.30
27,Cc1nc(-c2ccc(-c3cc4cnc(NC5CCOCC5)nc4n(C4CCOCC4)c3=O)c(Cl)c2)no1,6.30 to 7.30
28,Cc1nc(-c2ccc(-c3cc4cnc(NC5CCOCC5)nc4n(Cc4cccc(OCCN)c4)c3=O)c(Cl)c2)no1 [drawing 344],> 7.30

# Same assay, conditions: 1 mM ATP; read-out: PAK1 IC50 (1 mM ATP)
row,Structure (SMILES),pIC50
1,CCn1c(=O)c(-c2ccc(-c3noc(C)n3)cc2Cl)cc2cnc(N[C@H]3COC[C@H]3O)nc21,≤ 5.30
2,Cc1nc(-c2ccc(-c3cc4cnc(NC5CC5)nc4n(Cc4cccc(CN)c4)c3=O)c(Cl)c2)no1,5.30 to 6.30
3,Cc1nc(-c2ccc(-c3cc4cnc(NC5CCOCC5)nc4n(Cc4cccc(CCN)c4)c3=O)c(Cl)c2)no1 [drawing 339],6.30 to 7.30
4,Cc1nc(-c2ccc(-c3cc4cnc(NC5CC5)nc4n(Cc4cccc(CN(C)C)c4)c3=O)c(Cl)c2)no1,5.30 to 6.30
5,CCn1c(=O)c(-c2ccc(-c3noc(C)n3)cc2Cl)cc2cnc(NC3CC3c3ccccc3)nc21 (stereo not drawn),5.30 to 6.30
6,CCN1CCC(CCNc2ncc3cc(-c4ccc(-c5noc(C)n5)cc4Cl)c(=O)n(CC)c3n2)CC1,5.30 to 6.30
7,CCn1c(=O)c(-c2ccc(-c3noc(C)n3)cc2Cl)cc2cnc(NCCC3CCN(C)CC3)nc21 [drawing 361],≤ 5.30
8,CCn1c(=O)c(-c2ccc(-c3noc(C)n3)cc2Cl)cc2cnc(NCC3CCCO3)nc21 (stereo not drawn),≤ 5.30
9,Cc1nc(-c2ccc(-c3cc4cnc(NC5CCOCC5)nc4n(C4CCN(C5CCNCC5)C4)c3=O)c(Cl)c2)no1 (stereo not drawn),≤ 5.30
10,CCn1c(=O)c(-c2ccc(-c3noc(C)n3)cc2Cl)cc2cnc(NCc3ccccn3)nc21,≤ 5.30
11,Cc1nc(-c2ccc(-c3cc4cnc(NC5CCOCC5)nc4n(CC(=O)NCCCN)c3=O)c(Cl)c2)no1,5.30 to 6.30
12,CCn1c(=O)c(-c2ccc(-c3noc(C)n3)cc2Cl)cc2cnc(NC3COC4(CCCC4)C3)nc21 (stereo not drawn),≤ 5.30
13,CCn1c(=O)c(-c2ccc(-c3noc(C)n3)cc2Cl)cc2cnc(NC3CCOC(C)(C)C3)nc21 (stereo not drawn),≤ 5.30
14,CCn1c(=O)c(-c2ccc(-c3noc(C)n3)cc2Cl)cc2cnc(NCCCN(C)C)nc21,≤ 5.30
15,CCCCNc1ncc2cc(-c3ccc(-c4noc(C)n4)cc3Cl)c(=O)n(CC)c2n1,≤ 5.30
16,Cc1nc(-c2ccc(-c3cc4cnc(NC5CCOCC5)nc4n(C4CCN(CCN)C4)c3=O)c(Cl)c2)no1 (stereo not drawn),≤ 5.30
17,CCn1c(=O)c(-c2ccc(-c3noc(C)n3)cc2Cl)cc2cnc(NCCCNC(C)=O)nc21,≤ 5.30
18,CCn1c(=O)c(-c2ccc(-c3noc(C)n3)cc2Cl)cc2cnc(N[C@@H]3C[C@H]3C)nc21,> 7.30
19,Cc1nc(-c2ccc(-c3cc4cnc(NC5CCOCC5)nc4n(CC(=O)NC4CCNC4)c3=O)c(Cl)c2)no1 (stereo not drawn) [drawing 346],≤ 5.30
20,CCn1c(=O)c(-c2ccc(-c3noc(C)n3)cc2Cl)cc2cnc(NCC3CCOC3)nc21 (stereo not drawn),≤ 5.30
21,Cc1nc(-c2ccc(-c3cc4cnc(NC5CCOCC5)nc4n(CC(=O)N4CCCC(CN)C4)c3=O)c(Cl)c2)no1 (stereo not drawn),≤ 5.30
22,CCn1c(=O)c(-c2ccc(-c3noc(C)n3)cc2Cl)cc2cnc(NC(C)C)nc21,≤ 5.30
23,Cc1nc(-c2ccc(-c3cc4cnc(NC5CCOCC5)nc4n(C4CCNC4)c3=O)c(Cl)c2)no1 (stereo not drawn),≤ 5.30
24,CCn1c(=O)c(-c2ccc(-c3noc(C)n3)cc2Cl)cc2cnc(NCCCOC)nc21,≤ 5.30
25,CCn1c(=O)c(-c2ccc(-c3noc(C)n3)cc2Cl)cc2cnc(NN3CCOCC3)nc21,≤ 5.30
26,CCn1c(=O)c(-c2ccc(-c3noc(C)n3)cc2Cl)cc2cnc(NCc3ccncc3)nc21,≤ 5.30
27,Cc1nc(-c2ccc(-c3cc4cnc(NC5CCOCC5)nc4n(C4CCOCC4)c3=O)c(Cl)c2)no1,≤ 5.30
28,Cc1nc(-c2ccc(-c3cc4cnc(NC5CCOCC5)nc4n(Cc4cccc(OCCN)c4)c3=O)c(Cl)c2)no1 [drawing 344],5.30 to 6.30
